Read-outs that look alike come from different tables or passages of the source.
Key:
influenza B = experiment: Antiviral activity of the combinations against influenza B; type: cell-based; conditions: combination with Compound 1
[1] = test system: Influenza virus A/PR/8/34 (H1N1); experiment: Cytopathic effect (CPE) assay of two-drug combinations in MDCK cells, MacSynergy II analysis; type: cell-based
[2] = combination with Compound 1, A/PR/8/34 (H1N1) in MDCK cells, 0.125-8x EC50 checkerboard, MacSynergy II

| SMILES | Antiviral activity against influenza B (influenza B) | Antagonism volume (95%) [1, 2] | Synergy volume (95%) [1, 2] | Combination effect ([1]; combination with Compound 1, A/PR/8/34 (H1N1) in MDCK cells, MacSynergy II) | Synergistic effect in influenza antiviral CPE assays ([1]; combination with Compound 1, IFV A/PR/8/34 (H1N1)) | Combination effect [1] | Synergistic effect in influenza antiviral CPE assays [1] | Synergy volume (95%) [1] |
| --- | --- | --- | --- | --- | --- | --- | --- | --- |
| CCC(CC)O[C@@H]1C=C(C(=O)O)C[C@H](N)[C@H]1NC(C)=O [Oseltamivir acid, oseltamivir acid] | exhibit antiviral activity | −9.19 | 269.37 | Strong synergism | strong synergistic effect |  |  |  |
| NC(=O)c1nc(F)c[nH]c1=O [Favipiravir, favipiravir] | exhibit antiviral activity | −3.15 |  |  |  | Strong synergism | strong synergistic effect | 413.85 |
| O=C1c2c(O)c(=O)ccn2N([C@@H]2c3ccccc3SCc3c2ccc(F)c3F)[C@@H]2COCCN12 [Baloxavir, baloxavir] |  | −12.28 |  |  |  |  |  | 285.84 |
